# Assay results taken from PubChem BioAssay AID256 (DTP/NCI, 2004).
# Several values for one entry are separate records, joined by “and”; a condition that tells them apart may be missing. Identical values can stand only once. Inconclusive results and toxic doses are left out.
# System: CD2F1 mice, L1210 leukemia ip, survival T/C
# Assay: NCI In Vivo Anticancer Drug Screen. Data for tumor model L1210 Leukemia (intraperitoneal) in CD2F1 (CDF1) mice
# Conditions: higher = longer survival
# Summary of the method: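 Transplantable tumor in mice; compound-treated vs vehicle-treated groups. Read-out = treated/control ratio of the measured endpoint.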
# [1] = endpoint: mean survival time, dose: 200.0 mg/kg/injection, schedule: Q04DX002 (ip), vehicle: saline with Tween-80
# [2] = endpoint: mean survival time, dose: 400.0 mg/kg/injection, schedule: Q04DX002 (ip), vehicle: saline with Tween-80
compound,measurement,setting,value
OC(COc1ccccc1Cl)COc1ccccc1Cl,T/C,"endpoint: mean survival time, dose: 100.0 mg/kg/injection, schedule: Q04DX003 (ip), vehicle: saline + alcohol",101 % of control
same,T/C,"endpoint: mean survival time, dose: 200.0 mg/kg/injection, schedule: Q04DX003 (ip), vehicle: saline + alcohol",95 % of control
same,T/C,"endpoint: mean survival time, dose: 400.0 mg/kg/injection, schedule: Q04DX003 (ip), vehicle: saline + alcohol",95 % of control
Cc1c2c(c(C)c3c(C)nccc13)Cc1ccccc1-2,T/C,"endpoint: mean survival time, dose: 100.0 mg/kg/injection, schedule: Q04DX002 (ip), vehicle: saline with Tween-80",92 % of control
same,T/C,[1],92 % of control
same,T/C,[2],88 % of control
Cc1cc(OC(=O)N2CCCCC2)c(C(C)C)cc1[N+](C)(C)C,T/C,"endpoint: mean survival time, dose: 0.06 mg/kg/injection, schedule: Q01DX009 (ip), vehicle: saline",95 % of control
same,T/C,"endpoint: mean survival time, dose: 0.07 mg/kg/injection, schedule: Q04DX003 (ip), vehicle: saline sonified",97 % of control
same,T/C,"endpoint: mean survival time, dose: 0.13 mg/kg/injection, schedule: Q04DX003 (ip), vehicle: saline sonified",106 % of control
same,T/C,"endpoint: mean survival time, dose: 0.25 mg/kg/injection, schedule: Q04DX003 (ip), vehicle: saline sonified",100 % of control
COc1ccc(NC2=C(C)C(=O)C3=C(C2=O)[C@H](COC(N)=O)[C@]2(OC)[C@@H]4N[C@@H]4CN32)cc1,T/C,"endpoint: mean survival time, dose: 1.5 mg/kg/injection, schedule: Q01DX001 (ip), vehicle: water",107 % of control
same,T/C,"endpoint: mean survival time, dose: 3.0 mg/kg/injection, schedule: Q01DX001 (ip), vehicle: water",118 % of control and 110 % of control
same,T/C,"endpoint: mean survival time, dose: 6.0 mg/kg/injection, schedule: Q01DX001 (ip), vehicle: water",117 % of control and 111 % of control
same,T/C,"endpoint: mean survival time, dose: 12.0 mg/kg/injection, schedule: Q01DX001 (ip), vehicle: water",124 % of control
same,T/C,"endpoint: mean survival time, dose: 24.0 mg/kg/injection, schedule: Q01DX001 (ip), vehicle: water",153 % of control
same,T/C,"endpoint: mean survival time, dose: 48.0 mg/kg/injection, schedule: Q01DX001 (ip), vehicle: water",124 % of control
COc1ccc(NC(=O)Nc2ccccc2C)c(OC)c1,T/C,"endpoint: mean survival time, dose: 25.0 mg/kg/injection, schedule: Q04DX002 (ip), vehicle: saline with Tween-80",88 % of control
same,T/C,"endpoint: mean survival time, dose: 50.0 mg/kg/injection, schedule: Q04DX002 (ip), vehicle: saline with Tween-80",88 % of control
same,T/C,[1],90 % of control
same,T/C,[2],90 % of control
COC(=O)C1(C)CCCC2(C)c3cc(OC)ccc3C=CC12 (configuration not stated),T/C,"endpoint: mean survival time, dose: 100.0 mg/kg/injection, schedule: Q01DX009 (ip), vehicle: saline with Tween-80",104 % of control
same,T/C,"endpoint: mean survival time, dose: 200.0 mg/kg/injection, schedule: Q01DX009 (ip), vehicle: saline with Tween-80",106 % of control
same,T/C,"endpoint: mean survival time, dose: 400.0 mg/kg/injection, schedule: Q01DX009 (ip), vehicle: saline with Tween-80",103 % of control
Nc1ccn([C@@H](C=O)C[C@@H](C=O)CO)c(=O)n1,T/C,"endpoint: median survival time, dose: 25.0 mg/kg/injection, schedule: Q01DX009 (ip), vehicle: saline",107 % of control
same,T/C,"endpoint: median survival time, dose: 50.0 mg/kg/injection, schedule: Q01DX009 (ip), vehicle: saline",121 % of control and 112 % of control
same,T/C,"endpoint: median survival time, dose: 100.0 mg/kg/injection, schedule: Q01DX009 (ip), vehicle: saline",121 % of control and 124 % of control
same,T/C,"endpoint: median survival time, dose: 400.0 mg/kg/injection, schedule: Q01DX009 (ip), vehicle: saline",153 % of control and 161 % of control
CC[N+](C)(CC)CCCOC(=O)c1ccccc1Oc1ccc(C)cc1,T/C,"endpoint: mean survival time, dose: 50.0 mg/kg/injection, schedule: Q01DX009 (ip), vehicle: saline",102 % of control
NC(=O)c1cn(C2CC(O)C(CO)O2)c2ncnc(N)c12 (configuration not stated),T/C,"endpoint: mean survival time, dose: 0.03 mg/kg/injection, schedule: Q01DX009 (ip), vehicle: water",93 % of control
same,T/C,"endpoint: mean survival time, dose: 0.06 mg/kg/injection, schedule: Q01DX009 (ip), vehicle: water",93 % of control
same,T/C,"endpoint: mean survival time, dose: 0.13 mg/kg/injection, schedule: Q01DX009 (ip), vehicle: water",94 % of control
same,T/C,"endpoint: mean survival time, dose: 0.25 mg/kg/injection, schedule: Q01DX009 (ip), vehicle: water",98 % of control
same,T/C,"endpoint: mean survival time, dose: 0.5 mg/kg/injection, schedule: Q01DX009 (ip), vehicle: water",102 % of control
same,T/C,"endpoint: mean survival time, dose: 1.0 mg/kg/injection, schedule: Q01DX009 (ip), vehicle: water",98 % of control
same,T/C,"endpoint: mean survival time, dose: 2.0 mg/kg/injection, schedule: Q01DX009 (ip), vehicle: water",100 % of control
same,T/C,"endpoint: mean survival time, dose: 4.0 mg/kg/injection, schedule: Q01DX009 (ip), vehicle: water",104 % of control
same,T/C,"endpoint: mean survival time, dose: 5.0 mg/kg/injection, schedule: Q01DX009 (ip), vehicle: water",108 % of control
same,T/C,"endpoint: mean survival time, dose: 8.0 mg/kg/injection, schedule: Q01DX009 (ip), vehicle: water",100 % of control
same,T/C,"endpoint: mean survival time, dose: 10.0 mg/kg/injection, schedule: Q01DX009 (ip), vehicle: water",99 % of control
same,T/C,"endpoint: mean survival time, dose: 16.0 mg/kg/injection, schedule: Q01DX009 (ip), vehicle: water",98 % of control
same,T/C,"endpoint: mean survival time, dose: 20.0 mg/kg/injection, schedule: Q01DX009 (ip), vehicle: water",104 % of control
same,T/C,"endpoint: mean survival time, dose: 40.0 mg/kg/injection, schedule: Q01DX009 (ip), vehicle: water",101 % of control
same,T/C,"endpoint: mean survival time, dose: 80.0 mg/kg/injection, schedule: Q01DX009 (ip), vehicle: water",103 % of control
same,T/C,"endpoint: mean survival time, dose: 160.0 mg/kg/injection, schedule: Q01DX009 (ip), vehicle: water",104 % of control
OCC1CC2c3[nH]c4ccccc4c3CCN2C1 (configuration not stated),T/C,"endpoint: mean survival time, dose: 20.0 mg/kg/injection, schedule: Q01DX001 (ip), vehicle: saline with Tween-80",95 % of control
same,T/C,"endpoint: mean survival time, dose: 40.0 mg/kg/injection, schedule: Q01DX001 (ip), vehicle: saline with Tween-80",90 % of control
same,T/C,"endpoint: mean survival time, dose: 80.0 mg/kg/injection, schedule: Q01DX001 (ip), vehicle: saline with Tween-80",93 % of control
